Reference: ChEMBL document CHEMBL1201862, “PubChem BioAssay data set” (2004)
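Five compound concentrations were applied to cells in 96-well plates for 48 hours; endpoints were derived by simple linear interpolation of the resulting dose-response curve. GI50 is the concentration that inhibits growth by half.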 The source made the active and inactive calls. Cut-off read from the data, not from the text of the source: active = GI50 up to about 1.1 µM and inactive = higher.

How the values were obtained:
Assay in all cases: DTP human tumour cell line panel, 48 h
HT-29 = system: HT-29
HOP-62 = system: HOP-62
SNB-75 = system: SNB-75
KM-20L2 = system: KM-20L2
HOP-92 = system: HOP-92
HCC 2998 = system: HCC 2998
SN12C = system: SN12C
SK-MEL-28 = system: SK-MEL-28
SF-539 = system: SF-539
KM12 = system: KM12
SK-MEL-2 = system: SK-MEL-2
HL-60 = system: HL-60
UACC-62 = system: UACC-62
UACC-257 = system: UACC-257
OVCAR-8 = system: OVCAR-8
M14 = system: M14
SF-295 = system: SF-295
OVCAR-3 = system: OVCAR-3
MCF7 = system: MCF7
MDA-MB-435 = system: MDA-MB-435

Structure (SMILES) | GI50 (HT-29) | GI50 (HOP-62) | GI50 (SNB-75) | GI50 (KM-20L2) | GI50 (HOP-92) | GI50 (HCC 2998) | GI50 (SN12C) | GI50 (SK-MEL-28) | GI50 (SF-539) | GI50 (KM12) | GI50 (SK-MEL-2) | GI50 (HL-60) | GI50 (UACC-62) | GI50 (UACC-257) | GI50 (OVCAR-8) | GI50 (M14) | GI50 (SF-295) | GI50 (OVCAR-3) | GI50 (MCF7) | GI50 (MDA-MB-435)
OCC(O)COc1c(Cl)ccc(Cl)c1Cl (stereo not given) | > 100 µM (inactive) | > 100 µM (inactive) | > 100 µM (inactive) | > 100 µM (inactive) | > 100 µM (inactive) | > 100 µM (inactive) | > 100 µM (inactive) | > 100 µM (inactive) | > 100 µM (inactive) | > 100 µM (inactive) | > 100 µM (inactive) | > 100 µM (inactive) | > 100 µM (inactive) | > 100 µM (inactive) | > 100 µM (inactive) | > 100 µM (inactive) | > 100 µM (inactive) | > 100 µM (inactive) | – | –
CN1CCC23c4c5ccc(O)c4OC2C(=NN=C2CCC4(O)C6Cc7ccc(O)c8c7C4(CCN6C)C2O8)CCC3(O)C1C5 (stereo not given) | > 100 µM (inactive) | > 100 µM (inactive) | > 100 µM (inactive) | > 100 µM (inactive) | > 100 µM (inactive) | > 100 µM (inactive) | > 100 µM (inactive) | > 100 µM (inactive) | > 100 µM (inactive) | > 100 µM (inactive) | > 100 µM (inactive) | > 100 µM (inactive) | > 100 µM (inactive) | > 100 µM (inactive) | > 100 µM (inactive) | > 100 µM (inactive) | > 100 µM (inactive) | > 100 µM (inactive) | – | –
C[C@@H]1[C@@H]2[C@@H](C=C3C4CCC5Cc6nc7c(nc6C[C@@]5(C)C4C[C@H](O)[C@]32CO)CC2CCC3C4=C[C@H]5O[C@@]6(OC(C)(CO)C[C@@H]6O)[C@H](C)[C@@]5(O)[C@]4(C)[C@@H](O)CC3[C@]2(C)C7)O[C@]12CCC(C)(C)O2 (stereo not given in full) | 0.0625 µM (active) | 0.00311 µM (active) | 0.00038 µM (active) | 0.0233 µM (active) | 0.00815 µM (active) | 0.145 µM (active) | 0.904 µM (active) | 0.0305 µM (active) | 0.000764 µM (active) | 0.057 µM (active) | 0.0189 µM (active) | 0.00692 µM (active) | 0.0802 µM (active) | 0.0668 µM (active) | 0.425 µM (active) | 0.0182 µM (active) | 0.000508 µM (active) | 0.388 µM (active) | 0.00075 µM (active) | –
Cc1cc2c(s1)C(=O)c1sccc1C2=O | 2.04 µM (inactive) | – | 0.397 µM (active) | 2.46 µM (inactive) | 1.52 µM (inactive) | 1.75 µM (inactive) | 0.388 µM (active) | 0.2 µM (active) | 0.248 µM (active) | 1.63 µM (inactive) | 0.385 µM (active) | 3.34 µM (inactive) | 0.24 µM (active) | 0.194 µM (active) | 0.424 µM (active) | 0.176 µM (active) | 0.344 µM (active) | 0.83 µM (active) | 1.26 µM (inactive) | 0.177 µM (active)
OCCCNc1ccnc2cc(Cl)ccc12 | > 100 µM (inactive) | > 100 µM (inactive) | > 100 µM (inactive) | > 100 µM (inactive) | > 100 µM (inactive) | > 100 µM (inactive) | > 100 µM (inactive) | > 100 µM (inactive) | > 100 µM (inactive) | > 100 µM (inactive) | > 100 µM (inactive) | > 100 µM (inactive) | > 100 µM (inactive) | > 100 µM (inactive) | > 100 µM (inactive) | > 100 µM (inactive) | > 100 µM (inactive) | > 100 µM (inactive) | – | –
CC(C)c1cccc(C(C)C)c1/N=C(/N)C#N | > 58.6 µM (inactive) | > 100 µM (inactive) | > 100 µM (inactive) | > 100 µM (inactive) | > 41.5 µM (inactive) | > 100 µM (inactive) | > 100 µM (inactive) | > 100 µM (inactive) | 22.8 µM (inactive) | > 56 µM (inactive) | > 90.6 µM (inactive) | 26.7 µM (inactive) | > 50.2 µM (inactive) | > 46.6 µM (inactive) | > 100 µM (inactive) | > 100 µM (inactive) | > 100 µM (inactive) | > 100 µM (inactive) | – | –
